Test results reported in ChEMBL document CHEMBL3994658, “Synthesis, molecular docking and α-glucosidase inhibition of 2-((5,6-diphenyl-1,2,4-triazin-3-yl)thio)-N-arylacetamides” (Bioorg Med Chem Lett, 2017).
pIC50: −log10 of the molar value.

Assay: Inhibition of Saccharomyces cerevisiae alpha-glucosidase using p-nitrophenyl-alpha-D-glucopyranoside as substrate preincubated for 15 mins followed by substrate addition measured after 30 mins by spectrophotometric method

| pIC50 | SMILES |
| --- | --- |
| 4.31 | COc1ccc(NC(=O)CSc2nnc(-c3ccccc3)c(-c3ccccc3)n2)cc1 |
| 4.58 | CCOc1ccc(NC(=O)CSc2nnc(-c3ccccc3)c(-c3ccccc3)n2)cc1 |
| 4.55 | O=C(CSc1nnc(-c2ccccc2)c(-c2ccccc2)n1)Nc1cc(Cl)ccc1Cl |
| 4.46 | O=C(CSc1nnc(-c2ccccc2)c(-c2ccccc2)n1)Nc1ccc(C(F)(F)F)cc1 |
| 4.85 | O=C(CSc1nnc(-c2ccccc2)c(-c2ccccc2)n1)Nc1ccc(Cl)cc1 |
| 4.43 | O=C(CSc1nnc(-c2ccccc2)c(-c2ccccc2)n1)Nc1ccc(Cl)cc1Cl |
| 4.37 | Cc1cccc(NC(=O)CSc2nnc(-c3ccccc3)c(-c3ccccc3)n2)c1 |
| 4.34 | Cc1ccc(NC(=O)CSc2nnc(-c3ccccc3)c(-c3ccccc3)n2)c([N+](=O)[O-])c1 |
| 4.30 | O=C(CSc1nnc(-c2ccccc2)c(-c2ccccc2)n1)Nc1ccc(F)cc1 |
| 4.80 | CCOc1ccccc1NC(=O)CSc1nnc(-c2ccccc2)c(-c2ccccc2)n1 |
| 4.60 | O=C(CSc1nnc(-c2ccccc2)c(-c2ccccc2)n1)Nc1ccc(Oc2ccccc2)cc1 |
| 4.90 | O=C(CSc1nnc(-c2ccccc2)c(-c2ccccc2)n1)Nc1ccc([N+](=O)[O-])cc1 |
| 4.17 | Cc1ccc(NC(=O)CSc2nnc(-c3ccccc3)c(-c3ccccc3)n2)c(C)c1 |
| 4.28 | Cc1ccc(NC(=O)CSc2nnc(-c3ccccc3)c(-c3ccccc3)n2)cc1 |
| 4.14 | Cc1ccccc1NC(=O)CSc1nnc(-c2ccccc2)c(-c2ccccc2)n1 |
| 4.33 | COc1ccc(NC(=O)CSc2nnc(-c3ccccc3)c(-c3ccccc3)n2)c([N+](=O)[O-])c1 |
| 4.15 | O=C(CSc1nnc(-c2ccccc2)c(-c2ccccc2)n1)Nc1ccccc1 |
